Source: patent US11958859B2, “Use of pyridoxal acetal salts as water-triggered pro-fragrances” (Florida Gulf Coast University Board of Trustees, priority 2018, dated 2024)

Columns and labels:
[1] = Hydrolysis (acetal cleavage) of pyridoxal acetal salts in D2O/DMSO-d6, release of the alcohol monitored by time-dependent 1H NMR; type: physicochemical; conditions: for release of alcohol from the respective pyridoxal acetal: 0.2 M, 30% D2O in DMSO-d6, after 22 hours
Experimental: The hydrolysis of the target alcohol from the pyridoxal acetal salt in the presence of D2O was monitored by ^1H NMR spectroscopy. This was accomplished by comparing the formation of hemiacetal C—H peak to the loss of the acetal C—H peak. For substrate 3a, the integration of the acetal C—H peak at 6.58 ppm was compared to the integration of the pyridoxal hemiacetal C—H peak at 6.41 ppm hourly to determine conversion. A stack plot of the NMR spectra for 50% D2O solution in DMSO-d6 over 20 hours is illustrated in FIG. 2.
To determine the kinetics of the hydrolysis with respect to the concentration of water, acetal 3a was exposed to varying concentrations of D2O The release of ethanol from 3a was measured at concentrations of 25%, 35%, 50%, and 100% D2O in DMSO-d6 and is plotted in FIG. 3. […] The 100% D2O trial provides full cleavage after 10 hours whereas a lowest concentration of D2O (25%) provides the slowest release at only 28% cleaved after 25 hours. The 50% D2O trial provided 74% release after 25 hours and the 35% D2O trial provided 42% release.
The rate of release for ethanol (blue), isopropanol (red), 2-phenylethanol (green), and geraniol (purple) were monitored at a 0.2 M concentration of 30% D2O in DMSO-d6 from the respective pyridoxal acetal. […] In all cases, the acetals hydrolyze to release the target molecule and pyridoxal HCl quantitatively. Since other fragrance delivery systems can lose material in side reactions (H. Q. N. Gunaratne et al., Chem. Commun., 2015, 51, 4455), the high fidelity in the release for these alcohols is significant.
The acetal cleavage was measured by comparing the integration of Ha to Hb whereas Hb/(Ha+Hb) provides the percent completion for the acetal cleavage for 3a and 3b. The stack plots in FIGS. 7-11 provide a visual counterpart to the graphs. 3c had some overlap between Ha and Hb so the fully separated methyl groups of the isopropyl were integrated instead.
3a (0.1636 mmol) was dissolved in 0.4 mL of DMSO-d6 (except for 100% D2O) and varying amounts of D2O were added, as shown in the table below (see corresponding stack plots in FIGS. 7-11).

Work on `Cc1ncc2c(c1O)C(OCCc1ccccc1)OC2.Cl` (stereo not shown) yielded a melting point of 168 to 172 °C.
In the case of `CCOC1OCc2cnc(C)c(O)c21.Cl` (stereo not shown) [3a, 1-ethoxy-7-hydroxy-6-methyl-1,3-dihydrofuro[3,4-c]pyridin-5-ium chloride], the “release of alcohol from the respective pyridoxal acetal” value [1] is reported as 35%, the “acetal cleaved (release of ethanol)” value ([1]; 25% D2O in DMSO-d6, after 25 hours) is reported as 28% and the “dependence of release rate on water concentration” value ([1]; 25%, 35%, 50%, 100% D2O in DMSO-d6, FIG. 3) is reported as “rate increases with higher concentrations of D2O”. The release of ethanol ([1]; 35% D2O in DMSO-d6 (time not restated; 25 hours implied)) was 42%, the release of ethanol ([1]; 50% D2O in DMSO-d6, after 25 hours) was 74% and the “cleavage of acetal (release of ethanol)” value ([1]; 100% D2O, after 10 hours, 1H NMR) was “full cleavage”. It also gave a melting point of 97 to 103 °C.
For `Cc1ncc2c(c1O)C(OC(C)C)OC2.Cl` (stereo not shown) [3c, 7-hydroxy-1-isopropoxy-6-methyl-1,3-dihydrofuro[3,4-c]pyridin-5-ium chloride], the “release of alcohol from the respective pyridoxal acetal” value [1] was 37% and the melting point was 116 to 121 °C.
